Series [1] is described as follows: Stability of compound at 95 degreeC incubated for 5 mins by HPLC analysis. It counts as physicochemical.
The nature of series [2]: Stability of compound assessed as Poxin (unknown origin) mediated compound degradation at 300 uM and measured after 24 hrs by HPLC analysis. Format: ADME.
Series [3] concerns the target T1, Ectonucleotide pyrophosphatase/phosphodiesterase family member 1 (Homo sapiens, UniProt P22413).
T1 sequence (P22413 whole entry): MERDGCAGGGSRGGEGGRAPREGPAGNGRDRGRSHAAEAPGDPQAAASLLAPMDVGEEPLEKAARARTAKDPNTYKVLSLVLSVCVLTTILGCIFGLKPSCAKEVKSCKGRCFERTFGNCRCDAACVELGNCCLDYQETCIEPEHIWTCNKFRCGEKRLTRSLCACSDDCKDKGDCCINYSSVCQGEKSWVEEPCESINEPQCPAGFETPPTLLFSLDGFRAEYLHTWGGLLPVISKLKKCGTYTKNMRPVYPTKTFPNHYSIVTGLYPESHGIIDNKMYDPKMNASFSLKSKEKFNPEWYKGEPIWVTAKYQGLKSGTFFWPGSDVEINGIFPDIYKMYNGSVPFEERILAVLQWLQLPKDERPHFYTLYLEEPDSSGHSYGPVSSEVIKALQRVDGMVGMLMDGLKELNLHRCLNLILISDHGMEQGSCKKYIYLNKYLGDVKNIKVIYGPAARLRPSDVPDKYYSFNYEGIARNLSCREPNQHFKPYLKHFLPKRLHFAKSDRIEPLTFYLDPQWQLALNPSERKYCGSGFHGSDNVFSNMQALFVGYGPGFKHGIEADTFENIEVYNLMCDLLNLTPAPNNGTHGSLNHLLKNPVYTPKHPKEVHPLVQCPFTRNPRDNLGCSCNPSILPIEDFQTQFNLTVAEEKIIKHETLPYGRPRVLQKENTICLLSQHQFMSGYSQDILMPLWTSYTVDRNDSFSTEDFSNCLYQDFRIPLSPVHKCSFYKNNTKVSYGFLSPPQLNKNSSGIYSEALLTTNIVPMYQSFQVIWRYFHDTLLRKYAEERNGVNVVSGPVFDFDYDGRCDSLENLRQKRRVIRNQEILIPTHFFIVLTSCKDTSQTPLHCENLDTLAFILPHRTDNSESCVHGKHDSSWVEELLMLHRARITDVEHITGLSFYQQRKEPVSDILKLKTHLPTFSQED
Nature of the series: Stability of compound assessed as ENPP1 (unknown origin) mediated compound degradation at 300 uM measured upto 24 hrs by HPLC analysis. It counts as ADME.

For series [4], the target named is T2, Stimulator of interferon genes protein (Homo sapiens, UniProt Q86WV6). Nature of the series: Displacement of 2'-Fluo-AHC-c-di-GMP from wildtype human STING expressed in Escherichia coli BL21 (DE3) incubated for 5 mins by fluorescence polarization assay.
T2 sequence (Q86WV6 whole entry): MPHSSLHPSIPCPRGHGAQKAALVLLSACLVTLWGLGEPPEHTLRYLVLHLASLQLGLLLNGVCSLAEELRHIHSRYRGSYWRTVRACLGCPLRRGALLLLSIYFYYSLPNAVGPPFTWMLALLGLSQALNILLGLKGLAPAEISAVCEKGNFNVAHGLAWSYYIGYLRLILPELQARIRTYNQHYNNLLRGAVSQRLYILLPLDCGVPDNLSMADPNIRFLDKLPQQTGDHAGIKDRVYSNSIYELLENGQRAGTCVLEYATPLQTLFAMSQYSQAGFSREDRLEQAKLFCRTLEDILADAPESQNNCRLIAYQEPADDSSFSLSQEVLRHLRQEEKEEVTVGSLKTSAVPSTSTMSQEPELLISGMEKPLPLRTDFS
Series [5] addresses T2, Stimulator of interferon genes protein. As to the kind of experiment: Agonist activity at STING in wildtype human THP1-Dual cells assessed as IRF activation incubated for 24 hrs by QUANTI-Luc reagent based luminescence assay. Format: cell-based.
Series [6] shares this target. Nature of the series: Agonist activity at STING in human THP1-Dual KI-hSTING-R232 cells assessed as IRF activation incubated for 24 hrs by QUANTI-Luc reagent based luminescence assay. It counts as cell-based.
The target is the same in series [7].
Description: Binding affinity to wildtype human STING expressed in Escherichia coli BL21 (DE3) assessed as thermal stability by measuring increase in melting temperature by differential scanning fluorimetry analysis
A short description of series [8]: Stability of compound assessed as Poxin (unknown origin) mediated compound degradation at 300 uM and measured after 3 hrs by HPLC analysis. Format: ADME.
A short description of series [9]: Stability of compound assessed as Poxin (unknown origin) mediated compound degradation at 300 uM and measured after 30 mins by HPLC analysis. Format: ADME. As to conditions: 0.5 h.

Consider `CCN(CC)CC.CCN(CC)CC.Nc1nc2c(ncn2[C@@H]2O[C@@H]3COP(=O)(O)O[C@H]4[C@@H](F)[C@H](n5cnc6c(N)ncnc65)O[C@@H]4CSP(=O)(O)O[C@@H]2[C@@H]3O)c(=O)[nH]1`, for which the Stability result in series [1], in series [2] and in [3] was “Stable” throughout.

Turning to `Nc1nc2c(ncn2[C@@H]2O[C@@H]3COP(=O)(O)O[C@H]4C[C@H](n5cnc6c(N)ncnc65)O[C@@H]4CSP(=O)(O)O[C@@H]2[C@@H]3O)c(=O)[nH]1`, the IC50 (commonly the concentration that gives 50% inhibition) in [4] was found to be 7.87 µM. Further, the figures for the EC50 in series [5] and in [6] were 37 µM and 16.4 µM, respectively.

Molecule `CCN(CC)CC.CCN(CC)CC.Nc1nc2c(ncn2[C@@H]2O[C@@H]3COP(=O)(O)O[C@H]4[C@@H](O)[C@H](n5cnc6c(N)ncnc65)O[C@@H]4CSP(=O)(O)O[C@@H]2[C@@H]3O)c(=O)[nH]1` had an IC50 in series [4] of 18.6 µM. The ΔTm (usually the change in melting temperature against a reference sample) in series [7] is 8.2 °C. The Stability result was “Stable” in series [1], “Stable” in [3] and “Unstable” in series [8]. Further, the EC50 (in general, the concentration giving half of the maximal effect) in series [5] amounted to 27.2 µM; in series [6], 27.4 µM.

As to `Nc1nc2c(ncn2[C@@H]2O[C@@H]3COP(=O)(O)O[C@H]4[C@@H](O)[C@H](n5cnc6c(N)ncnc65)O[C@@H]4COP(=O)(O)O[C@@H]2[C@@H]3O)c(=O)[nH]1`, the Stability result was “Stable” in [1], “Unstable” in series [3] and “Unstable” in series [9].

Source of the values: ChEMBL document CHEMBL5532694, “PDE-stable 2'3'-cGAMP analogues, containing 5'-S-phosphorothioester linkage, as STING agonists” (RSC Med Chem, 2024).
